pIC50: −log10 of the molar value. Bounds are passed on as bounds.

Chain of CYP2C19 (P33261 whole entry): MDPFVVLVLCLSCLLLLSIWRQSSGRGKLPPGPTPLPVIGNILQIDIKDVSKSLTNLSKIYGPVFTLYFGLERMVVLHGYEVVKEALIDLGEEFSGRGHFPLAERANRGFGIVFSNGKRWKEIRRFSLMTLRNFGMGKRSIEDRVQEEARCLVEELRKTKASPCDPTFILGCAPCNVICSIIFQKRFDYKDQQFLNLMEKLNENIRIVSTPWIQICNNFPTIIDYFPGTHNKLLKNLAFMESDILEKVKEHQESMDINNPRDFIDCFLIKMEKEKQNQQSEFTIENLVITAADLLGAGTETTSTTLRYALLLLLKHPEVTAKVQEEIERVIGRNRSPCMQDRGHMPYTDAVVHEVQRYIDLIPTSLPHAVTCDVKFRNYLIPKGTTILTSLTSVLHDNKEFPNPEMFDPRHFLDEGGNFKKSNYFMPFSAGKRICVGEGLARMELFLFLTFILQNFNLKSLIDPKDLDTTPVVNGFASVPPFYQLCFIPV

The first assay deals with TrkA kinase (Homo sapiens, UniProt P04629). Kind of assay: TrkA kinase biochemical activity assay (AlphaScreen). As to conditions: 100 μM ATP; read-out: Biochemical Inhibition IC50 TrkA. Put shortly: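 IC50 values come from AlphaScreen PY20/streptavidin bead signal versus compound concentration. Kinase reaction: 1 ng/well TrkA, 100 μM ATP, 30 nM biotin-(E4Y)10 substrate, Mn2+-containing Hepes buffer pH 7.5, 5% DMSO, 40 min, room temperature; TrkC assayed by the same approach.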
Chain of TrkA kinase (P04629 33-796): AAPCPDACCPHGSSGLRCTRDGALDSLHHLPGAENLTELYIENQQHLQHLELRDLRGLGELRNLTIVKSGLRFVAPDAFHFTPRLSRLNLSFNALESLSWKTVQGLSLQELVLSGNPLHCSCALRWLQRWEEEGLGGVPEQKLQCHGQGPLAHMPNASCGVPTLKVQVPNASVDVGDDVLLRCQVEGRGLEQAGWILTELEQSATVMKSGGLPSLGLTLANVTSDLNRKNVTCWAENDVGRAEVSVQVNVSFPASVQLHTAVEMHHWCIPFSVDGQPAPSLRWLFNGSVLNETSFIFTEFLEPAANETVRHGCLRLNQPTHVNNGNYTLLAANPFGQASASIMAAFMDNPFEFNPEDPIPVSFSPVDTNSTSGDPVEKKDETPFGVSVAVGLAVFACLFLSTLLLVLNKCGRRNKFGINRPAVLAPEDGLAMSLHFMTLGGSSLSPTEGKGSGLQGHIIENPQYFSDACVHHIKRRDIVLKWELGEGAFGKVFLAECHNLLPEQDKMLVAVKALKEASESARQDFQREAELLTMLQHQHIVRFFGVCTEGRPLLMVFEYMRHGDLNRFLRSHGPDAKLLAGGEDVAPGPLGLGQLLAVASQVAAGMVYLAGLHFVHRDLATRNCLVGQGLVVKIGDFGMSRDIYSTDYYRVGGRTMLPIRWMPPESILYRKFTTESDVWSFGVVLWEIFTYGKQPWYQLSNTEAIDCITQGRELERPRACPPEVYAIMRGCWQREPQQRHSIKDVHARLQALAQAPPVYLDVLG
Regarding `COc1ccccc1Nc1ncc(Cc2c[nH]c3ncc(Cl)cc23)cn1` [Compound P-3016, [5-(5-Chloro-1H-pyrrolo[2,3-b]pyridin-3-ylmethyl)-pyrimidin-2-yl]-(2-methoxy-phenyl)-amine], the negative logarithm of the IC50 (pIC50) is under 6.00. On the same count and under the same terms, with `Fc1cccc(Nc2ncc(Cc3c[nH]c4ncc(Cl)cc34)cn2)c1` [Compound P-3017, [5-(5-Chloro-1H-pyrrolo[2,3-b]pyridin-3-ylmethyl)-pyrimidin-2-yl]-(3-fluoro-phenyl)-amine] the figure was under 6.00; with `Cc1cnc2[nH]cc(Cc3cnc(Nc4ccc(C(F)(F)F)nc4)nc3)c2c1` [Compound P-3018, [5-(5-Methyl-1H-pyrrolo[2,3-b]pyridin-3-ylmethyl)-pyrimidin-2-yl]-(6-trifluoromethyl-pyridin-3-yl)-amine], over 6.00; with `COc1ccc(Nc2ccc(Cc3c[nH]c4ncc(C)cc34)c(F)n2)cn1` [Compound P-3019, [6-fluoro-5-(5-methyl-1H-pyrrolo[2,3-b]pyridin-3-ylmethyl)-pyridin-2-yl]-(6-methoxy-pyridin-3-yl)-amine], over 7.00. Take `COc1ccc(Nc2ncc(Cc3c[nH]c4ncc(C)cc34)cn2)cn1` [Compound P-3020, (6-Methoxy-pyridin-3-yl)-[5-(5-methyl-1H-pyrrolo[2,3-b]pyridin-3-ylmethyl)-pyrimidin-2-yl]-amine]: the pIC50 was over 7.00. The same measure, in the same setting: with `COc1ccc(Nc2ncc(Cc3c[nH]c4ncc(C)cc34)cn2)cc1` [Compound P-3021, (4-Methoxy-phenyl)-[5-(5-methyl-1H-pyrrolo[2,3-b]pyridin-3-ylmethyl)-pyrimidin-2-yl]-amine] the figure was over 7.00; with `COc1cc(Nc2ncc(Cc3c[nH]c4ncc(C)cc34)cn2)ccc1F` [Compound P-3022, (4-Fluoro-3-methoxy-phenyl)-[5-(5-methyl-1H-pyrrolo[2,3-b]pyridin-3-ylmethyl)-pyrimidin-2-yl]-amine], over 6.00; with `CCCOc1ccc(Nc2ncc(Cc3c[nH]c4ncc(C)cc34)cn2)cc1` [Compound P-3024, [5-(5-Methyl-1H-pyrrolo[2,3-b]pyridin-3-ylmethyl)-pyrimidin-2-yl]-(4-propoxy-phenyl)-amine], over 6.00.

Take `CCc1ccc(Nc2ncc(Cc3c[nH]c4ncc(C)cc34)cn2)cc1` [Compound P-3025, (4-Ethyl-phenyl)-[5-(5-methyl-1H-pyrrolo[2,3-b]pyridin-3-ylmethyl)-pyrimidin-2-yl]-amine]: the negative logarithm of the IC50 (pIC50) is over 7.00. Take `CCOc1ccc(Nc2ncc(Cc3c[nH]c4ncc(C)cc34)cn2)cc1` [Compound P-3026, (4-Ethoxy-phenyl)-[5-(5-methyl-1H-pyrrolo[2,3-b]pyridin-3-ylmethyl)-pyrimidin-2-yl]-amine]: the negative logarithm of the IC50 (pIC50) is under 6.00.

Take `CCOc1ccc(Nc2ncc(Cc3c[nH]c4ncc(C)cc34)cn2)cn1` [Compound P-3027, (6-Ethoxy-pyridin-3-yl)-[5-(5-methyl-1H-pyrrolo[2,3-b]pyridin-3-ylmethyl)-pyrimidin-2-yl]-amine]: the negative-log IC50 (pIC50) is over 6.00. As to `Cc1cnc2[nH]cc(Cc3cnc(Nc4cc(-c5ccc(F)cc5)n[nH]4)nc3)c2c1` [Compound P-3028, [5-(4-Fluoro-phenyl)-2H-pyrazol-3-yl]-[5-(5-methyl-1H-pyrrolo[2,3-b]pyridin-3-ylmethyl)-pyrimidin-2-yl]-amine], the negative logarithm of the IC50 (pIC50) was over 7.00.

As to `Cc1cnc2[nH]cc(Cc3cnc(Nc4cc(C(C)(C)C)n[nH]4)nc3)c2c1` [Compound P-3029, (5-tert-Butyl-2H-pyrazol-3-yl)-[5-(5-methyl-1H-pyrrolo[2,3-b]pyridin-3-ylmethyl)-pyrimidin-2-yl]-amine], the negative logarithm of the IC50 (pIC50) is over 6.00. On the same count and under the same terms, with `Cc1cnc2[nH]cc(Cc3cnc(Nc4ccc(C(C)(C)C)cc4)nc3)c2c1` [Compound P-3030, (4-tert-Butyl-phenyl)-[5-(5-methyl-1H-pyrrolo[2,3-b]pyridin-3-ylmethyl)-pyrimidin-2-yl]-amine amine] the figure was over 8.00; with `Cc1cnc2[nH]cc(Cc3cnc(Nc4ccc(C(O)(C(F)(F)F)C(F)(F)F)cc4)nc3)c2c1` [Compound P-3031, 1,1,1,3,3,3-Hexafluoro-2-{4-[5-(5-methyl-1H-pyrrolo[2,3-b]pyridin-3-ylmethyl)-pyrimidin-2-ylamino]-phenyl}-propan-2-ol], over 7.00. On the same count and under the same terms, in the case of `Cc1cnc2[nH]cc(Cc3cnc(Nc4cc(C5CC5)n[nH]4)nc3)c2c1` [Compound P-3032, (5-Cyclopropyl-2H-pyrazol-3-yl)-[5-(5-methyl-1H-pyrrolo[2,3-b]pyridin-3-ylmethyl)-pyrimidin-2-yl]-amine] it was under 6.00; in that of `CSc1ccc(Nc2ncc(Cc3c[nH]c4ncc(C)cc34)cn2)cc1` [Compound P-3033, [5-(5-Methyl-1H-pyrrolo[2,3-b]pyridin-3-ylmethyl)-pyrimidin-2-yl]-(4-methylsulfanyl-phenyl)-amine], over 8.00. With `Cc1cnc2[nH]cc(Cc3cnc(Nc4ccc(S(C)(=O)=O)cc4)nc3)c2c1` [Compound P-3034, (4-Methanesulfonyl-phenyl)-[5-(5-methyl-1H-pyrrolo[2,3-b]pyridin-3-ylmethyl)-pyrimidin-2-yl]-amine], the negative logarithm of the IC50 (pIC50) was over 6.00. Same read-out and setting: with `CCn1ccc(Nc2ncc(Cc3c[nH]c4ncc(C)cc34)cn2)n1` [Compound P-3035, (1-Ethyl-1H-pyrazol-3-yl)-[5-(5-methyl-1H-pyrrolo[2,3-b]pyridin-3-ylmethyl)-pyrimidin-2-yl]-amine] the figure was over 6.00; with `CCn1cc(Nc2ncc(Cc3c[nH]c4ncc(C)cc34)cn2)cn1` [Compound P-3036, (1-Ethyl-1H-pyrazol-4-yl)-[5-(5-methyl-1H-pyrrolo[2,3-b]pyridin-3-ylmethyl)-pyrimidin-2-yl]-amine], over 6.00; with `CCOc1ccc(Nc2ccc(Cc3c[nH]c4ncc(C)cc34)c(F)n2)cn1` [Compound P-3039, (6-ethoxy-pyridin-3-yl)-[6-fluoro-5-(5-methyl-1H-pyrrolo[2,3-b]pyridin-3-ylmethyl)-pyridin-2-yl]-amine], over 7.00.

`Cc1ccc(Nc2ccc(Cc3c[nH]c4ncc(Cl)cc34)c(F)n2)cn1` [Compound P-3042, [5-(5-Chloro-1H-pyrrolo[2,3-b]pyridin-3-ylmethyl)-6-fluoro-pyridin-2-yl]-(6-methyl-pyridin-3-yl)-amine]: the pIC50 is over 7.00. Still for that read-out and setting: in the case of `CCOc1ccc(Nc2ccc(C(=O)c3c[nH]c4ncc(C)cc34)c(F)n2)cn1` [Compound P-3045, [6-(6-ethoxy-pyridin-3-ylamino)-2-fluoro-pyridin-3-yl]-(5-methyl-1H-pyrrolo[2,3-b]pyridin-3-yl)-methanone] it was over 8.00. On the same count and under the same terms, with `CCOc1ncnc2[nH]cc(Cc3ccc(Nc4ccc(Br)nc4)nc3F)c12` [Compound P-4020, (6-Bromo-pyridin-3-yl)-[5-(4-ethoxy-7H-pyrrolo[2,3-d]pyrimidin-5-ylmethyl)-6-fluoro-pyridin-2-yl]-amine] the figure was over 8.00; with `CCOc1ncnc2[nH]cc(Cc3ccc(Nc4cccnc4)nc3F)c12` [Compound P-4021, [5-(4-Ethoxy-7H-pyrrolo[2,3-d]pyrimidin-5-ylmethyl)-6-fluoro-pyridin-2-yl]-pyridin-3-yl-amine], over 6.00.

Regarding `CCOc1ccc(Nc2ccc(Cc3c[nH]c4ncnc(C5CC5)c34)c(F)n2)cn1` [Compound P-4026, [5-(4-Cyclopropyl-7H-pyrrolo[2,3-d]pyrimidin-5-ylmethyl)-6-fluoro-pyridin-2-yl]-(6-ethoxy-pyridin-3-yl)-amine], the negative-log IC50 (pIC50) is over 8.00. Same read-out and setting: in the case of `CCOc1ccc(Nc2ccc(C(=O)c3c[nH]c4ncnc(C5CC5)c34)c(F)n2)cn1` [Compound P-4027, (4-Cyclopropyl-7H-pyrrolo[2,3-d]pyrimidin-5-yl)-[6-(6-ethoxy-pyridin-3-ylamino)-2-fluoro-pyridin-3-yl]-methanone] it was over 8.00; in that of `CCOc1ccc(Nc2ccc(C(=O)c3c[nH]c4ncnc(C)c34)c(F)n2)cn1` [Compound P-4032, [6-(6-Ethoxy-pyridin-3-ylamino)-2-fluoro-pyridin-3-yl]-(4-methyl-7H-pyrrolo[2,3-d]pyrimidin-5-yl)-methanone], over 7.00. `Cc1cncc(Nc2ccc(Cc3c[nH]c4ncnc(C5CC5)c34)c(F)n2)c1` [Compound P-4038, [5-(4-Cyclopropyl-7H-pyrrolo[2,3-d]pyrimidin-5-ylmethyl)-6-fluoro-pyridin-2-yl]-(5-methyl-pyridin-3-yl)-amine]: the pIC50 was over 7.00. Turning to `Cc1cncc(Nc2ccc(C(=O)c3c[nH]c4ncnc(C5CC5)c34)c(F)n2)c1` [Compound P-4039, (4-Cyclopropyl-7H-pyrrolo[2,3-d]pyrimidin-5-yl)-[2-fluoro-6-(5-methyl-pyridin-3-ylamino)-pyridin-3-yl]-methanone], the pIC50 is over 7.00.

In the next assay the target is CYP2C19 (Homo sapiens, UniProt P33261). Kind of assay: CYP2C19 inhibition (fluorescent substrate CEC). The format is in vitro ADME. As to conditions: read-out: Cyp IC50 2C19. The method, boiled down:
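IC50 derives from metabolite fluorescence against compound concentration, read at excitation 409 nm and emission 460 nm for CYP1A2/2C19 or 530 nm for CYP2C9/2D6. Incubations ran at 37° C for 15 min (1A2), 45 min (2C9) or 30 min (2C19, 2D6), after serial dilution into NADPH cofactor mix and 10 min preincubation.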
Take `Clc1cnc2[nH]cc(Cc3cnc(NC4CCCCC4)nc3)c2c1` [Compound P-3001, [5-(5-chloro-1H-pyrrolo[2,3-b]pyridin-3-ylmethyl)-pyrimidin-2-yl]-cyclohexyl-amine]: the pIC50 is under 5.00. On the same count and under the same terms, with `FC1(F)CCC(Nc2ncc(Cc3c[nH]c4ncc(Cl)cc34)cn2)CC1` [Compound P-3004] the figure was 5.00 to 5.30; with `Clc1cnc2[nH]cc(Cc3cnc(NC4CCCCCC4)nc3)c2c1` [Compound P-3006, [5-(5-Chloro-1H-pyrrolo[2,3-b]pyridin-3-ylmethyl)-pyrimidin-2-yl]-cycloheptyl-amine], under 5.00; with `Cc1cnc2[nH]cc(Cc3cnc(Nc4ccc(C(F)(F)F)nc4)nc3)c2c1` [Compound P-3018, [5-(5-Methyl-1H-pyrrolo[2,3-b]pyridin-3-ylmethyl)-pyrimidin-2-yl]-(6-trifluoromethyl-pyridin-3-yl)-amine], under 5.00. The same measure, in the same setting: with `COc1ccc(Nc2ccc(Cc3c[nH]c4ncc(C)cc34)c(F)n2)cn1` [Compound P-3019, [6-fluoro-5-(5-methyl-1H-pyrrolo[2,3-b]pyridin-3-ylmethyl)-pyridin-2-yl]-(6-methoxy-pyridin-3-yl)-amine] the figure was over 5.30.

For `CCOc1ccc(Nc2ccc(Cc3c[nH]c4ncc(C)cc34)c(F)n2)cn1` [Compound P-3039, (6-ethoxy-pyridin-3-yl)-[6-fluoro-5-(5-methyl-1H-pyrrolo[2,3-b]pyridin-3-ylmethyl)-pyridin-2-yl]-amine], the pIC50 is under 5.00.

The values above are taken from patent US8901118B2, “Compounds and methods for kinase modulation, and indications therefor” (Plexxikon Inc., priority 2010, dated 2014).
